This note sets out measurements from ChEMBL document CHEMBL5724914, “Linking interpersonal differences in gut microbiota composition and drug biotransformation activity” (2024).

Data set [1] can be described thus: The drug is tested on Z-030 corresponding to mouse gut metagenome with ENA study accession number: PRJEB37062 and ENA sample accession number: ERS12561829 for biotransformation under anaerobic condition. The drug concentrations were measured over 9 timepoints collected between 0 and 24 hours of incubation by liquid-chromatography-coupled mass spectrometry (LC–MS). Conditions: 2 µM.

Data set [2] can be described thus: The drug is tested on Z-027 corresponding to metagenome with ENA study accession number: PRJEB37062 and ENA sample accession number: ERS12561826 for biotransformation under anaerobic condition. The drug concentrations were measured over 9 timepoints collected between 0 and 24 hours of incubation by liquid-chromatography-coupled mass spectrometry (LC–MS). The following applies: 2 µM.

Data set [3] in a line: The drug is tested on Z-020 corresponding to rabbit gut metagenome with ENA study accession number: PRJEB37062 and ENA sample accession number: ERS12561819 for biotransformation under anaerobic condition. The drug concentrations were measured over 9 timepoints collected between 0 and 24 hours of incubation by liquid-chromatography-coupled mass spectrometry (LC–MS). The following applies: 2 µM.

Data set [4] in a line: The drug is tested on Z-019 corresponding to rat gut metagenome with ENA study accession number: PRJEB37062 and ENA sample accession number: ERS12561818 for biotransformation under anaerobic condition. The drug concentrations were measured over 9 timepoints collected between 0 and 24 hours of incubation by liquid-chromatography-coupled mass spectrometry (LC–MS). Conditions: 2 µM.

The nature of data set [5]: The drug is tested on Z-007 corresponding to rat gut metagenome with ENA study accession number: PRJEB37062 and ENA sample accession number: ERS12561807 for biotransformation under anaerobic condition. The drug concentrations were measured over 9 timepoints collected between 0 and 24 hours of incubation by liquid-chromatography-coupled mass spectrometry (LC–MS). The following applies: 2 µM.

Data set [6] in a line: The drug is tested on Z-005 corresponding to metagenome with ENA study accession number: PRJEB37062 and ENA sample accession number: ERS12561805 for biotransformation under anaerobic condition. The drug concentrations were measured over 9 timepoints collected between 0 and 24 hours of incubation by liquid-chromatography-coupled mass spectrometry (LC–MS). Conditions: 2 µM.

Data set [7] in a line: The drug is tested on Z-002 corresponding to rabbit gut metagenome with ENA study accession number: PRJEB37062 and ENA sample accession number: ERS12561802 for biotransformation under anaerobic condition. The drug concentrations were measured over 9 timepoints collected between 0 and 24 hours of incubation by liquid-chromatography-coupled mass spectrometry (LC–MS). The following applies: 2 µM.

A short description of data set [8]: The drug is tested on Z-001 corresponding to mouse gut metagenome with ENA study accession number: PRJEB37062 and ENA sample accession number: ERS12561801 for biotransformation under anaerobic condition. The drug concentrations were measured over 9 timepoints collected between 0 and 24 hours of incubation by liquid-chromatography-coupled mass spectrometry (LC–MS). Conditions: 2 µM.

Data set [9] in a line: The drug is tested on WLS-098 corresponding to human gut metagenome with ENA study accession number: PRJEB37062 and ENA sample accession number: ERS12561754 for biotransformation under anaerobic condition. The drug concentrations were measured over 9 timepoints collected between 0 and 24 hours of incubation by liquid-chromatography-coupled mass spectrometry (LC–MS). Conditions: 2 µM.

The nature of data set [10]: The drug is tested on WLS-073 corresponding to human gut metagenome with ENA study accession number: PRJEB37062 and ENA sample accession number: ERS12561749 for biotransformation under anaerobic condition. The drug concentrations were measured over 9 timepoints collected between 0 and 24 hours of incubation by liquid-chromatography-coupled mass spectrometry (LC–MS). The following applies: 2 µM.

Data set [11] can be described thus: The drug is tested on WLS-069 corresponding to human gut metagenome with ENA study accession number: PRJEB37062 and ENA sample accession number: ERS12561748 for biotransformation under anaerobic condition. The drug concentrations were measured over 9 timepoints collected between 0 and 24 hours of incubation by liquid-chromatography-coupled mass spectrometry (LC–MS). The following applies: 2 µM.

The nature of data set [12]: The drug is tested on WLS-007 corresponding to human gut metagenome with ENA study accession number: PRJEB37062 and ENA sample accession number: ERS12561742 for biotransformation under anaerobic condition. The drug concentrations were measured over 9 timepoints collected between 0 and 24 hours of incubation by liquid-chromatography-coupled mass spectrometry (LC–MS). Conditions: 2 µM.

The conditions of data set [13]: human gut metagenome, 24 h, 2 µM.
For data set [14] the following is noted: human gut metagenome, 24 h, 2 µM. This is another data set of the same source.
For data set [15] the following is noted: human gut metagenome, 24 h, 2 µM. This is another data set of the same source.
For data set [16] the following is noted: human gut metagenome, 24 h, 2 µM. This is another data set of the same source.
For data set [17] the following is noted: human gut metagenome, 24 h, 2 µM. The source holds these as a separate data set.
The conditions of data set [18]: human gut metagenome, 24 h, 2 µM. This is another data set of the same source.
For data set [19] the following is noted: human gut metagenome, 24 h, 2 µM. The source holds these as a separate data set.
The conditions of data set [20]: human gut metagenome, 24 h, 2 µM. This is another data set of the same source.

Molecules are shown by their SMILES.
Further: call rule not given here.

For `Cc1cc2c(cc1S(N)(=O)=O)S(=O)(=O)CCC2`, the “Bacterial Biotransformation” value in data set [1], in data set [2], in data set [3], in data set [4], in data set [5] and in data set [6] was “Compound NOT metabolized” throughout. Further, the “Bacterial Biotransformation” value in data set [7], in [8], in data set [9], in data set [10], in data set [11] and in [12] was “Compound NOT metabolized” in each case. For the same compound, the “Bacterial Biotransformation” value in [13], in data set [14], in [15], in data set [16], in [17] and in [18] was “Compound NOT metabolized” throughout. For the same compound, the “Bacterial Biotransformation” value in [19] and in data set [20] was “Compound NOT metabolized” each time.

On to `CN1CCc2c(c3ccccc3n2Cc2ccccc2)C1.CN1CCc2c(c3ccccc3n2Cc2ccccc2)C1.O=S(=O)(O)c1cccc2c(S(=O)(=O)O)cccc12`, for which the “Bacterial Biotransformation” value in data set [1], in data set [2], in data set [3], in data set [4], in data set [5] and in data set [6] was “Compound NOT metabolized” in each case. For the same compound, the “Bacterial Biotransformation” value in data set [7], in [8], in [9], in data set [10], in data set [11] and in data set [12] was “Compound NOT metabolized” in each case. The “Bacterial Biotransformation” value in data set [13] is “Compound NOT metabolized”; in [14] it was “Compound NOT metabolized”; in [15], “Compound NOT metabolized”; in data set [16], “Compound NOT metabolized”; in [17], “Compound NOT metabolized”; in [18] it was “Compound metabolized”. The “Bacterial Biotransformation” value is on record as “Compound NOT metabolized” in data set [19] and “Compound metabolized” in [20].

In the case of `COc1cc2nc(N(C)CCCNC(=O)C3CCCO3)nc(N)c2cc1OC` (stereo not given) [ALFUZOSIN], the “Bacterial Biotransformation” value in data set [1], in [2], in data set [3], in data set [4], in [5] and in data set [6] was “Compound NOT metabolized” throughout. The “Bacterial Biotransformation” value in data set [7], in data set [8], in data set [9], in data set [10], in data set [11] and in [12] was “Compound metabolized” throughout. The “Bacterial Biotransformation” value in [13] is “Compound metabolized”; in data set [14], “Compound NOT metabolized”; in [15], “Compound metabolized”; in data set [16] it was “Compound metabolized”; in data set [17], “Compound metabolized”; in [18], “Compound metabolized”. Besides, the “Bacterial Biotransformation” value in data set [19] is on record as “Compound NOT metabolized”; in data set [20], “Compound metabolized”.

Take `NC12CC3CC(CC(C3)C1)C2` [AMANTADINE]: the “Bacterial Biotransformation” value in [1], in data set [2], in data set [3], in [4], in data set [5] and in data set [6] was “Compound NOT metabolized” in each case. In addition, the “Bacterial Biotransformation” value in [7], in data set [8], in data set [9], in data set [10], in data set [11] and in [12] was “Compound NOT metabolized” throughout. The “Bacterial Biotransformation” value in [13], in data set [14], in data set [15], in data set [16], in data set [17] and in data set [18] was “Compound NOT metabolized” throughout. In addition, the “Bacterial Biotransformation” value in data set [19] and in [20] was “Compound NOT metabolized” in each case.

`CC(C)(C#N)c1cc(Cn2cncn2)cc(C(C)(C)C#N)c1` [ANASTROZOLE]: the “Bacterial Biotransformation” value in data set [1], in data set [2], in data set [3], in data set [4], in data set [5] and in [6] was “Compound NOT metabolized” in each case. Further, the “Bacterial Biotransformation” value in [7] is reported as “Compound metabolized”; in data set [8], “Compound NOT metabolized”; in data set [9], “Compound metabolized”; in data set [10] it was “Compound NOT metabolized”; in data set [11] it was “Compound metabolized”; in data set [12], “Compound NOT metabolized”. The “Bacterial Biotransformation” value in [13] is reported as “Compound NOT metabolized”; in data set [14], “Compound NOT metabolized”; in data set [15], “Compound metabolized”; in [16], “Compound metabolized”; in [17], “Compound NOT metabolized”; in data set [18], “Compound metabolized”. The “Bacterial Biotransformation” value was “Compound NOT metabolized” in data set [19] and “Compound metabolized” in data set [20].
